# From article PMC6151961 (Journal of Enzyme Inhibition and Medicinal Chemistry, 2018)
# Like-named read-outs stand apart in the source and are kept apart here.
# Key:
# [1] = biological target: T1, CA IX (Homo sapiens, UniProt Q16790); test: biochemical
# [2] = biological target: T1, CA IX; settings: cited from earlier work; for Ki: read-out: Ki
# [3] = library compounds with IDs A… and B…, from observed Ki (nM)
# [4] = experimental value from the library Ki (IDs A…, B…), values equal log10 of Ki in nM
# [5] = experimental value used for the QSPR model, library compounds (IDs A…, B…), equals log10 of Ki in nM
# [6] = library compounds (IDs A..., B...), values equal log10 of Ki in nM, ref ChEMBL, BindingDB
# [7] = observed Ki of library compounds (IDs A..., B...), ref ChEMBL, BindingDB
# [8] = library compounds (IDs A…, B…), values equal log10 of Ki in nM, ref ChEMBL and BindingDB
# [9] = observed Ki of library compounds (IDs A…, B…), ref ChEMBL and BindingDB
# [10] = experimental pKi towards CA IX, library compounds, ref ChEMB database (ID A), BindingDB (ID B)
# [11] = observed Ki towards CA IX, library compounds, ref ChEMB database (ID A), BindingDB (ID B)
# [12] = library compounds (IDs A…, B…) of Table S4, ref ChEMBL and BindingDB
# [13] = library compounds (IDs A…, B…), observed Ki towards CA IX, ref ChEMBL and BindingDB
structure (smiles),measurement,setting,value
Fc1ccc(-c2nn(-c3ccccc3)cc2-c2nc3ccccc3[nH]2)cc1 [A1367],log10 of Ki in nM,[1]; [3],1.813
Cc1nnnn1-c1ccc2c(c1)C=CS(=O)(=O)O2 [A1375],log10 of Ki in nM,[1]; [3],1.819
CN(C)c1ccc(/N=N/c2ccc(S(N)(=O)=O)cc2)cc1 [A0408],log10 of Ki in nM,[1]; [4],0.820
NS(=O)(=O)c1ccc(CCNCc2cc(Cl)cc(Cl)c2O)cc1 [A0260],log10 of Ki in nM,[1]; [5],0.613
NS(=O)(=O)c1ccc(-n2cc(-c3ccc(Br)cc3)c3c2ncn2nc4c5ccccc5nc-4nc32)cc1 [B0025],log10 of Ki in nM,[1]; [5],0.431
COC(=O)c1cn(-c2ccc(S(N)(=O)=O)cc2)nc1-c1ccc(F)cc1 [A0626],log10 of Ki in nM,[1]; [4],0.973
C=CCOc1cc(=S)oc2ccccc12 [A2239],log10 of Ki in nM,[1]; [3],3.483
CCOC(=O)c1cc(O)ccc1O [A2120],log10 of Ki in nM,[1],2.934
NS(=O)(=O)c1ccc(-n2c(S)nc3cc(F)ccc3c2=O)cc1 [A0315],log10 of Ki in nM,[1]; [5],0.708
COc1ccc(-c2cc(CO)nn2-c2ccc(S(N)(=O)=O)cc2)cc1 [A0859],log10 of Ki in nM,[1]; [4],1.301
NS(=O)(=O)c1ccc(NC(=O)c2ccc(/N=C3\C(=O)Nc4ccc([N+](=O)[O-])cc43)cc2)cc1 [A1847],log10 of Ki in nM,[1]; [4],2.375
N#C/C(=C/C=C\c1ccccc1)C(=O)Nc1ccc(S(N)(=O)=O)cc1 [B0085],log10 of Ki in nM,[2]; [6],0.690
same,Ki,[2]; [7],4.9 nM
N#Cc1ccc(-c2cs/c(=N\c3ccc(S(N)(=O)=O)cc3)n2C2CCCCC2)cc1 [B0361],log10 of Ki in nM,[2]; [8],1.477
same,Ki,[2]; [9],30 nM
CC(=O)OC[C@H]1O[C@@H](n2cc(-c3ccc(S(N)(=O)=O)cc3)nn2)[C@@H](OC(C)=O)[C@@H](OC(C)=O)[C@@H]1OC(C)=O [B0096],log10 of Ki in nM,[2],0.699
same,Ki,[2],5 nM
NS(=O)(=O)c1ccc(CCN2C(c3ccccc3)=CCC=C2c2ccccc2)cc1 [B0533],log10 of Ki in nM,[2]; [10],1.908
same,Ki,[2]; [11],81 nM
Cc1cc(S(N)(=O)=O)c(S/C(=N\Nc2ccc([N+](=O)[O-])cc2)c2ccccc2)cc1Cl [A2454],Ki,[2]; [12],10000 nM
same,log10 of Ki in nM,[2]; [8],4.000
CCOc1ccc(S(=O)(=O)NCCO)cc1-c1nnc2c(n1)c(C)nn2-c1ccc(C)cc1 [B0321],Ki,[2]; [7],25 nM
COc1ccc2c(c1)CCN[C@H]2c1ccc(S(N)(=O)=O)cc1 [A0785],log10 of Ki in nM,[2],1.188
same,Ki,[2],15.4 nM
Cc1ccc2nc(S)n(-c3ccc(S(N)(=O)=O)cc3)c(=O)c2c1 [B0260],Ki,[2]; [12],16 nM
same,log10 of Ki in nM,[2]; [8],1.204
CC1=CC(c2ccccc2)C=C(C)N1CCc1ccc(S(N)(=O)=O)cc1 [B0111],log10 of Ki in nM,[2]; [8],0.778
same,Ki,[2]; [9],6 nM
COc1ccc2c(c1)CCN(S(N)(=O)=O)[C@H]2c1ccc(C#N)cc1 [A0427],Ki,[2]; [12],7 nM
same,log10 of Ki in nM,[2]; [8],0.845
NS(=O)(=O)c1ccc(-n2cc(CO[C@H]3O[C@H](CO)[C@H](O[C@H]4O[C@H](CO)[C@@H](O)[C@@H](O)[C@H]4O)[C@@H](O)[C@@H]3O)nn2)cc1 [B0542],log10 of Ki in nM,[2],1.924
same,Ki,[2],84 nM
O=C(Cc1ccccc1Br)Oc1ccc2c(c1)OS(=O)(=O)CC2 [A2452],log10 of Ki in nM,[2]; [10],4.000
same,Ki,[2]; [11],10000 nM
CC1=C[C@@H](C)C(C)=C(C)N1Cc1ccc(S(N)(=O)=O)cc1 [B0397],log10 of Ki in nM,[2]; [8],1.544
same,Ki,[2]; [9],35 nM
CCCN(CCC)S(=O)(=O)c1ccc(C(=O)N[C@H](CS)C(N)=O)cc1 [B0344],Ki,[2]; [12],28 nM
same,log10 of Ki in nM,[2]; [8],1.447
COc1cc2c(cc1OC)[C@@H](c1ccc([N+](=O)[O-])cc1)N(S(N)(=O)=O)CC2 [B0740],log10 of Ki in nM,[2]; [8],2.681
same,Ki,[2]; [9],480 nM
NS(=O)(=O)c1ccc(CCNS(=O)(=O)[C@@H]2O[C@@H](C(=O)O)[C@@H](O)[C@@H](O)[C@@H]2O)cc1 [B0584],Ki,[2]; [12],96 nM
same,log10 of Ki in nM,[2]; [8],1.982
Cc1ccc(-c2cnc(C(=O)N3CCCC3)o2)cc1S(N)(=O)=O [B0431],Ki,[2]; [7],43 nM
CC[C@@H](Sc1nc(-c2cccc(OC)c2)c(C#N)c(=O)[nH]1)C(=O)Nc1ccc(S(N)(=O)=O)cc1 [A0953],log10 of Ki in nM,[2]; [8],1.380
same,Ki,[2]; [9],24 nM
O=S(=O)(NO)N[C@H]1C=C[C@H](O)[C@@H](CO)O1 [A0589],log10 of Ki in nM,[2],0.954
same,Ki,[2],9 nM
NS(=O)(=O)c1ccc(-n2cc(CS(=O)(=O)[C@@H]3O[C@@H](CO)[C@H](O)[C@@H](O)[C@H]3O)nn2)cc1 [B0162],log10 of Ki in nM,[2],0.908
same,Ki,[2],8.1 nM
NS(=O)(=O)c1ccc(CCNc2nc(N[C@@H](CO)C(=O)O)nc(N[C@H](CO)C(=O)O)n2)cc1 [B0192],log10 of Ki in nM,[2],0.954
same,Ki,[2],9 nM
NS(=O)(=O)c1ccc(N[C@H]2SC[C@H](c3ccc(F)cc3F)N2C2CCCCC2)cc1 [B0547],log10 of Ki in nM,[2]; [8],1.934
same,Ki,[2]; [9],86 nM
Cc1cc(=O)oc2cc(O[C@H]3O[C@@H](C)[C@H](O)[C@H](O)[C@H]3O)ccc12 [B0671],log10 of Ki in nM,[2],2.303
same,Ki,[2],201 nM
CCCN(CCC)S(=O)(=O)c1ccc(C(=O)N[C@H](CO)C(=O)O)cc1 [B0340],log10 of Ki in nM,[2]; [10],1.431
same,Ki,[2]; [11],27 nM
COc1ccc(-c2nn(-c3ccc(S(N)(=O)=O)cc3)cc2/C=N/Nc2nc(-c3cc4cc(Br)ccc4oc3=O)cs2)cc1 [B0286],Ki,[2]; [13],20 nM
same,log10 of Ki in nM,[2]; [8],1.301
NS(=O)(=O)c1ccc(NC2=NC(=O)/C(=C\c3coc4ccccc4c3=O)S2)cc1 [B0247],Ki,[2]; [13],14 nM
same,log10 of Ki in nM,[2]; [8],1.146
NS(=O)(=O)c1ccc(CNC(=S)Nc2ccc(C3c4ccc(O)cc4Oc4cc(O)ccc43)c(C(=O)O)c2)cc1 [B0334],Ki,[2]; [13],26 nM
same,log10 of Ki in nM,[2]; [8],1.415
NS(=O)(=O)c1ccc(-n2cc(/C=N/Nc3nc(-c4cc5cc(Br)ccc5oc4=O)cs3)c(-c3ccc(Cl)cc3)n2)cc1 [B0302],log10 of Ki in nM,[2]; [8],1.362
same,Ki,[2]; [9],23 nM
CC(=O)OC[C@@H]1O[C@@H](SCc2cn(-c3ccc(S(N)(=O)=O)cc3)nn2)[C@H](OC(C)=O)[C@@H](OC(C)=O)[C@@H]1OC(C)=O [B0180],log10 of Ki in nM,[2],0.934
same,Ki,[2],8.6 nM
NS(=O)(=O)c1cc(-c2nnc(-c3ccccc3)s2)c(Cl)cc1Cl [B0246],Ki,[2]; [13],14 nM
same,log10 of Ki in nM,[2]; [8],1.146
CC(=O)OC[C@@H]1O[C@@H](S(=O)(=O)Cc2nnn(-c3ccc(S(N)(=O)=O)cc3)c2I)[C@H](OC(C)=O)[C@@H](OC(C)=O)[C@@H]1OC(C)=O [B0586],log10 of Ki in nM,[2],1.987
same,Ki,[2],97 nM
Cn1nc(S(N)(=O)=O)s/c1=N/C(=O)c1c(F)c(F)cc(F)c1F [B0221],log10 of Ki in nM,[2],1.021
same,Ki,[2],10.5 nM
NS(=O)(=O)c1ccc(N2C(=O)CS[C@@H]2c2cccc(F)c2)cc1 [A1295],Ki,[2]; [13],53.1 nM
same,log10 of Ki in nM,[2]; [8],1.725
COc1ccc2c(c1)CCN(S(N)(=O)=O)[C@H]2c1ccc(S(N)(=O)=O)cc1 [A0401],log10 of Ki in nM,[2],0.813
same,Ki,[2],6.5 nM
COc1ccc(/C=C\C(=O)C[C@H]2O[C@H](COC(C)=O)[C@@H](OC(C)=O)[C@@H](OC(C)=O)[C@@H]2OC(C)=O)cc1OC [B0756],Ki,[2]; [13],753 nM
same,log10 of Ki in nM,[2]; [8],2.877
CC1=C[C@H](c2ccccc2)C=C(c2ccccc2)N1c1ccc(S(=O)(=O)Nc2nnc(S(N)(=O)=O)s2)cc1 [B0314],log10 of Ki in nM,[2]; [8],1.380
same,Ki,[2]; [9],24 nM
CC(=O)OC[C@@H]1O[C@H](S(=O)(=O)Cc2cn(-c3ccc(S(N)(=O)=O)cc3)nn2)[C@@H](OC(C)=O)[C@H](OC(C)=O)[C@H]1OC(C)=O [B0149],log10 of Ki in nM,[2],0.875
same,Ki,[2],7.5 nM
NS(=O)(=O)c1ccc(-c2cn([C@H]3O[C@H](CO)[C@@H](O)[C@@H](O)[C@H]3O)nn2)cc1 [B0619],log10 of Ki in nM,[2],2.079
same,Ki,[2],120 nM
CC(=O)CN1C(=O)C=C(C)OS1(=O)=O [A2477],Ki,[2]; [13],20000 nM
same,log10 of Ki in nM,[2]; [8],4.301
Cc1cc(C)o/c(=N\O)c1 [B0259],log10 of Ki in nM,[2]; [6],1.204
same,Ki,[2]; [7],16 nM
C[C@H](Nc1nc(NCc2ccc(S(N)(=O)=O)cc2)nc(N[C@@H](C)C(=O)O)n1)C(=O)O [B0173],log10 of Ki in nM,[2],0.929
same,Ki,[2],8.5 nM
NS(=O)(=O)c1ccc(N[C@H]2SC[C@@H](c3ccc([N+](=O)[O-])cc3)N2C2CCCCC2)cc1 [B0353],Ki,[2]; [12],29 nM
same,log10 of Ki in nM,[2]; [8],1.462
NS(=O)(=O)c1ccc(-c2cn([C@@H]3O[C@@H](CO)[C@H](O)[C@@H]3O)nn2)cc1 [B0623],log10 of Ki in nM,[2],2.083
same,Ki,[2],121 nM
CC1C=C(C(C)C)N(Cc2ccc(S(N)(=O)=O)cc2)C(C(C)C)=C1 [B0461],Ki,[2]; [13],54 nM
same,log10 of Ki in nM,[2]; [8],1.732
CC1=CC(C)C=C(C)N1CCc1ccccc1C [B0765],log10 of Ki in nM,[2]; [8],2.919
same,Ki,[2]; [9],830 nM
COc1cc(/C=C\C(=O)OCCCCO[N+](=O)[O-])ccc1OC(=O)c1ccc(S(N)(=O)=O)cc1 [B0225],log10 of Ki in nM,[2],1.041
same,Ki,[2],11 nM
CC1=CC(C)C=C(C)N1CCc1ccccc1-c1ccccc1 [B0751],Ki,[2]; [12],710 nM
same,log10 of Ki in nM,[2]; [8],2.851
CC1(C)O[C@H]2[C@H](CO[C@]3(CNC(=S)Nc4ccc(S(N)(=O)=O)cc4F)OC(C)(C)O[C@H]23)O1 [B0608],log10 of Ki in nM,[2],2.041
same,Ki,[2],110 nM
COc1ccc2c(c1)CCN(S(N)(=O)=O)[C@H]2c1ccccc1 [A1457],Ki,[2]; [13],78 nM
same,log10 of Ki in nM,[2]; [8],1.892
CC(C)OS(N)(=O)=O [A2163],Ki,[2],1000 nM
CN1N[C@@H](S(N)(=O)=O)S[C@H]1NC(=O)c1c(F)c(F)c(F)c(F)c1F [B0350],log10 of Ki in nM,[2]; [6],1.462
same,Ki,[2]; [7],29 nM
